Test results from PMC12677652, “Procyanidin B3 and Its Derivatives Alleviate Neuronal Injury by Targeting G3BP1 for Ischemic Stroke Therapy” (Advanced Science, 2025).

What was measured:
G3BP1 [1] = target: T1, G3BP1 (Mus musculus, UniProt P97855); test: Cellular thermal shift assay; type: binding; details: HT22 cell lysate
T1 construct: endogenous in cells; host or cells: HT22 cell lysate
Experimental: HT22 cells were grown to 90% confluency and harvested by trypsin and resuspended in 1 mL PBS. The samples were subjected to three freeze–thaw cycles in liquid nitrogen. Each cell lysate was centrifuged (12000 g for 30 min at 4 °C), and the supernatant was collected. The supernatants were treated with PB3 (or PBS control) for 20 min. Subsequently, they were aliquoted into Eppendorf tubes and heated for 3 min to 44, 48, 52, 56, or 60 °C. The soluble fractions were analyzed by SDS‐polyacrylamide gel electrophoresis and immunoblotted with anti‐G3BP1 antibody.

G3BP1‐bound mRNA = test: RIP assay with RT-qPCR of G3BP1-bound mRNAs; type: cell-based; details: 50 µM, 6 h of reperfusion following OGD
Experimental: Total RNA from HT22 cells was extracted with Trizol. The concentration and purity of RNA were determined by Nanodrop (Thermo Scientific, USA), and RNA was reverse transcribed by PrimeScript Reverse Transcription Master Mix (TaKaRa, Japan). Then RT‐qPCR was performed using Hieff qPCR SYBR Green Master Mix (Yeasen, China). The expression level of the transcripts was normalized to the constitutive expression level of β‐actin. The primers used for amplification are listed in Table S4 (Supporting Information).
RIP assay was performed with the BeyoRIP RIP Assay Kit (Beyotime, China) using the manufacturer's protocol. HT22 cells were washed with PBS and centrifuged, then the cell was resuspended in complete lysis buffer. 3–5 µg antibody was pre‐bound to protein A/G agarose beads in NT2 wash buffer for 0.5 h and then incubated with 270 µL cell lysates for 4 h at 4 °C with rotation, and RNA was eluted from the beads by incubating with 100 µL elution buffer for 0.5 h at 55 °C. The eluted RNA was dissolved with RNase‐free water. Enrichment of certain fragments was determined by RT‐qPCR.

G3BP1 [2] = test: Immunoblotting of G3BP1 protein level; type: cell-based
Experimental: Cells and tissues were homogenized in RIPA buffer (Beyotime, China) containing protease inhibitors (Biovision, USA) on ice for 30 min. After centrifugation (13000 r min^−1, 4 °C) for 10 min, the resulting supernatant was collected. The protein concentrations were determined by a BCA protein assay kit (Thermo Scientific, USA). After separating a 10% sodium dodecyl sulfate (SDS)‐polyacrylamide gel, protein on the gel was then transferred onto nitrocellulose membranes (Merck, USA), which were blocked with 5% bovine serum albumin for 1 h to prevent non‐specific binding. Then, the anti‐caspase 3 antibody (catalog no. 9662, Cell Signaling Technology, USA), anti‐Bcl‐2 antibody (catalog no. GTX100064, GeneTex, USA), anti‐G3BP1 antibody (catalog no. 66486‐1‐Ig, Proteintech, China), anti‐β‐tubulin antibody (catalog no. 66240‐1‐Ig, Proteintech, China), and anti‐β‐actin antibody (catalog no. 66009‐1‐Ig, Proteintech, China) were used for treating the membrane overnight at 4 °C. Bound antibodies were detected with the species‐appropriate horseradish peroxidase‐labeled secondary antibody (Jackson ImmunoResearch, USA) using ECL reagents (ShareBio, China). Protein‐specific signals were detected using a Bio‐Rad Imager (Bio‐Rad, USA), and the bands were quantified by densitometric analysis software (ImageJ). β‐tubulin or β‐actin was used as a loading control.

bEnd.3 cells = test: In vitro BBB model, Transwell transport apical-to-basolateral; type: in vitro ADME; details: 100 µM, apical-to-basolateral, 30, 60, and 120 min
Experimental: The Transwell filters (0.4 µm pore) were used to evaluate the crossing capacity of the BBB of selected compounds. The basolateral side of the wells was filled by DMEM (Gibco, USA) with 10% FBS. Then, bEnd.3 cells were seeded on the apical side of the semi‐permeable filter in a humidified atmosphere. The culture medium was changed on alternate days. To verify if the cell monolayer formed junctions, the resistance was daily monitored by determining the trans‐endothelial electrical resistance. The resistance value of an empty filter was subtracted from each measurement. After reaching the confluence, bEnd.3 monolayer cells were washed three times with PBS, and the basolateral compartment was filled with Hanks' Balanced Salt Solution (HBSS). The permeability experiments across the cell monolayer were performed in the apical‐to‐basolateral direction. Transport experiments were assessed by placing the compounds, prepared in HBSS, on the upper side of the monolayers (100 µM/300 µL). At different time points (30, 60, and 120 min), 500 µL samples were taken from the basolateral side, and to replace the withdrawn volume, the same volume of preheated HBSS was added. The amount of cellular drug uptake was measured using a Waters e2695 system (Waters, USA).

tMCAO mice = test: Long-term neurological recovery after tMCAO; type: in vivo; details: 48 mg/kg daily, i.p.
Experimental: The modified neurological severity score was applied according to the previous report.^[ [63] ^] The range of the neurological function score extends from 0 to 18 points. A higher score represents more severe neurological deficits. In the rotarod test, according to the previous report,^[ [64] ^] mice were tested under the accelerating rotor mode with acceleration from 5 to 20 rpm. The final score for statistical analysis was expressed as the mean time that mice could remain on the rod.

T1 sequence (P97855 whole entry): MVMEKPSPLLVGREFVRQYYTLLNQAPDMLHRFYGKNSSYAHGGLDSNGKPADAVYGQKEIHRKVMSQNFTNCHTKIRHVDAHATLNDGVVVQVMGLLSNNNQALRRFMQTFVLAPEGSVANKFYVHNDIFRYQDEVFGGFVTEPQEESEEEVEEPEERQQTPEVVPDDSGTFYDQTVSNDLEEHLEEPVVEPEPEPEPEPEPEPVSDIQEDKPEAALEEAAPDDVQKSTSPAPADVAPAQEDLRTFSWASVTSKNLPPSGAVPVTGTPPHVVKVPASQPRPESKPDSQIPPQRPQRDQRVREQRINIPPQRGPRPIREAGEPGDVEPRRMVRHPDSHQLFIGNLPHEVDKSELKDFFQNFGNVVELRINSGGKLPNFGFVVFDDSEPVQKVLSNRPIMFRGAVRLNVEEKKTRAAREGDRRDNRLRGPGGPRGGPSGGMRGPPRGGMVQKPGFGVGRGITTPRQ

thermal stability of G3BP1 (G3BP1 [1])	transport efficiency (bEnd.3 cells)	SMILES	level of G3BP1‐bound mRNA (G3BP1‐bound mRNA)	protein level of G3BP1 (G3BP1 [2])	body weight (tMCAO mice)	modified neurological severity scores (tMCAO mice)	rotarod test (tMCAO mice; at the end of treatment)
enhanced the thermal stability of G3BP1	–	Oc1cc(O)c2c(c1)O[C@H](c1ccc(O)c(O)c1)[C@@H](O)[C@@H]2c1c(O)cc(O)c2c1O[C@H](c1ccc(O)c(O)c1)[C@@H](O)C2 [Compound 1, procyanidin B3]	higher	did not perturb the protein level of G3BP1	–	–	–
–	better than that of 1	CC(C)c1c(O)cc(O)c2c1O[C@H](c1ccc(O)c(O)c1)[C@@H](O)[C@@H]2c1c(O)cc(O)c2c1O[C@H](c1ccc(O)c(O)c1)[C@@H](O)C2 [Compound 6c, 8‐Isopropyl‐(+)‐Catechin‐(4α,8)‐(+)‐Catechin]	–	–	mitigated the tendency toward weight loss	lower scores than the tMCAO group	showed improvements compared with the tMCAO group
